From patent publication US8106212B2, “Substituted enaminocarbonyl compounds” (Bayer Cropscience AG, priority 2006, dated 2012)

Columns and labels:
Assay type in all cases: in vivo
Boophilus microplus = Boophilus microplus test (BOOPMI injection); conditions: 20 μg/Tier injected into abdomen, 100% = no tick has laid fertile eggs
Experimental: [table] To produce a suitable preparation of active compound, 1 part by weight of active compound is mixed with the stated amounts of solvent, and the concentrate is diluted with solvent to the desired concentration. The solution of active compound is injected into the abdomen (Boophilus microplus), and the animals are transferred into dishes and kept in a temperature-controlled room. After the desired period of time, the effect in % is determined. 100% means that no tick has laid any fertile eggs.

[1] = test system: larvae of the banded cucumber beetle (Diabrotica balteata); assay: Diabrotica balteata test, larvae in soil (DIABBA); conditions: 2 ppm in soil (mg/l), efficacy calculated from emerged maize plants
Experimental: [table] To produce a suitable preparation of active compound, 1 part by weight of active compound is mixed with the stated amounts of solvent and emulsifier, and the concentrate is diluted with water to the desired concentration. The active compound preparation is mixed with soil. The stated concentration refers to the amount of active compound per volume unit of soil (mg/l=ppm). The treated soil is filled into pots, and 5 maize corns are placed into each pot. 3 days after sowing, larvae of the banded cucumber beetle (Diabrotica balteata) are placed into the treated soil. After the desired period of time, the kill in % is determined. The efficacy is calculated from the number of maize plants that have emerged.

[2] = test system: green peach aphid (Myzus persicae); assay: Myzus persicae test, hydroponic treatment (MYZUPE sys.); conditions: 4 ppm in water (mg/l), pea plant
Experimental: [table] To produce a suitable preparation of active compound, 1 part by weight of active compound is mixed with the stated amounts of solvent and emulsifier, and the concentrate is diluted with water to the desired concentration. The preparation of active compound is mixed with water. The stated concentration refers to the amount of active compound per volume unit of water (mg/l=ppm). The treated water is filled into containers housing a pea plant (Pisum sativum) which is then infected with the green peach aphid (Myzus persicae). After the desired period of time, the kill in % is determined. 100% means that all aphids have been killed; 0% means that none of the aphids have been killed.

[3] = test system: green peach aphid (Myzus persicae); assay: Myzus test (MYZUPE spray treatment); conditions: Chinese cabbage discs sprayed
Experimental: [table] To produce a suitable preparation of active compound, 1 part by weight of active compound is mixed with the stated amounts of solvent and emulsifier, and the concentrate is diluted with emulsifier-containing water to the desired concentration. Discs of Chinese cabbage (Brassica pekinensis) which are infected by all stages of the green peach aphid (Myzus persicae) are sprayed with a preparation of active compound of the desired concentration. After the desired period of time, the effect in % is determined. 100% means that all aphids have been killed; 0% means that none of the aphids have been killed. [table] To produce a suitable preparation of active compound, 1 part by weight of active compound is mixed with the stated amounts of solvent and emulsifier, and the concentrate is diluted with emulsifier-containing water to the desired concentration. Discs of Chinese cabbage (Brassica pekinensis) which are infected by all stages of the green peach aphid (Myzus persicae) are sprayed with a preparation of active compound of the desired concentration. After the desired period of time, the effect in % is determined. 100% means that all aphids have been killed; 0% means that none of the aphids have been killed.

[4] = test system: larvae of the mustard beetle (Phaedon cochleariae); assay: Phaedon test (PHAECO spray treatment); conditions: 500 g/ha, Chinese cabbage discs sprayed
Experimental: [table] To produce a suitable preparation of active compound, 1 part by weight of active compound is mixed with the stated amounts of solvent and emulsifier, and the concentrate is diluted with emulsifier-containing water to the desired concentration. Discs of Chinese cabbage (Brassica pekinensis) are sprayed with a preparation of active compound of the desired concentration and, after drying, populated with larvae of the mustard beetle (Phaedon cochleariae). After the desired period of time, the effect in % is determined. 100% means that all beetle larvae have been killed; 0% means that none of the beetle larvae have been killed.

[5] = test system: adult fleas (Ctenocephalides felis); assay: Ctenocephalides felis; oral (CTECFE); conditions: 4 ppm in citrated cattle blood
Experimental: [table] To produce a suitable preparation of active compound, 1 part by weight of active compound is mixed with the stated amount of solvent. Part of the concentrate is diluted with citrated cattle blood, and the desired concentration is prepared. 20 unfed adult fleas (Ctenocephalides felis) are placed into a chamber whose top and bottom ends are closed with gauze. A metal cylinder whose bottom end is closed with parafilm is placed onto the chamber. The cylinder contains the blood/active compound preparation, which can be taken up by the fleas through the parafilm membrane. The blood is warmed to 37° C., but the flea chamber is at room temperature. After the desired period of time, the kill in % is determined. 100% means that all fleas have been killed; 0% means that none of the fleas have been killed.

[6] = test system: cotton aphid (Aphis gossypii); assay: Aphis gossypii test (APHIGO), leaf dip; conditions: 0.8 ppm, cotton leaves dipped
Experimental: [table] To produce a suitable preparation of active compound, 1 part by weight of active compound is mixed with the stated amounts of solvent and emulsifier, and the concentrate is diluted with emulsifier-containing water to the desired concentration. Cotton leaves (Gossypium hirsutum) which are heavily infested by the cotton aphid (Aphis gossypii) are treated by being dipped into the preparation of active compound of the desired concentration. After the desired period of time, the kill in % is determined. 100% means that all aphids have been killed; 0% means that none of the aphids have been killed.

[7] = test system: green peach aphid (Myzus persicae); assay: Myzus test; oral (MYZUPE O); conditions: 0.0064 ppm, oral uptake by sucking
Experimental: Myzus Test; Oral; (MYZUPE O) Solvent: 80 parts by weight of acetone To produce a suitable preparation of active compound, 1 part by weight of active compound is mixed with the stated amounts of solvent, and the concentrate is diluted with water to the desired concentration. Containers are populated with all stages of the green peach aphid (Myzus persicae), treatment is by sucking at the preparation of active compound of the desired concentration. After the desired period of time, the effect in % is determined. 100% means that all aphids have been killed; 0% means that none of the aphids have been killed.

Meloidogyne incognita = assay: Meloidogyne test (MELGIN spray treatment); conditions: 4 ppm, nematicidal activity by formation of galls on lettuce roots (100% = no galls)
Experimental: [table] To produce a suitable preparation of active compound, 1 part by weight of active compound is mixed with the stated amounts of solvent, and the concentrate is diluted with water to the desired concentration. Containers are filled with sand, active compound solution, Meloidogyne incognita egg/larvae suspension and lettuce seeds. The lettuce seeds germinate and the plants develop. On the roots, galls are formed. After the desired period of time, the nematicidal activity is determined by the formation of galls in %. 100% means that no galls were found; 0% means that the number of galls on the treated plants corresponds to that of the untreated controls.

Lucilia cuprina larvae = assay: Lucilia cuprina test (LUCICU); conditions: 4 ppm, treated horse meat
Experimental: [table] To produce a suitable preparation of active compound, 1 part by weight of active compound is mixed with the stated amounts of solvent, and the concentrate is diluted with water to the desired concentration. Containers containing horse meat treated with the preparation of active compound of the desired concentration are populated with Lucilia cuprina larvae. After the desired period of time, the kill in % is determined. 100% means that all larvae have been killed; 0% means that none of the larvae have been killed.

[8] = 4 g/ha, Biological Examples table
[9] = 20 g/ha, Biological Examples table
[10] = 100 g/ha, Biological Examples table

Compound: CN(Cc1cnc(Cl)c(F)c1)C1=CC(=O)OC1 [Example 1, 4-[[(6-Chloro-5-fluoropyridin-3-yl)methyl](methyl)amino]furan-2(5H)-one]
- Kill rate in % after 7 days (Boophilus microplus): 30%
- Kill rate in % after 10 days [1]: 100%

Compound: CON(Cc1cnc(Cl)c(Cl)c1)C1=CC(=O)OC1 [Example 2, 4-[[(5,6-Dichloropyridin-3-yl)methyl](methoxy)amino]furan-2(5H)-one]
- Kill rate in % after 7 days (Boophilus microplus): 30%

Compound: O=C1C=C(N(Cc2cnc(Cl)c(I)c2)C2CC2)CO1 [Example 3, 4-[[(6-Chloro-5-iodopyridin-3-yl)methyl](cyclopropyl)amino]furan-2(5H)-one]
- Kill rate in % after 7 days (Boophilus microplus): 40%

Compound: CN(Cc1cnc(Br)c(Cl)c1)C1=CC(=O)OC1 [Example 4, 4-[[(6-Bromo-5-chloropyridin-3-yl)methyl](methyl)amino]furan-2(5H)-one]
- Kill rate in % after 5 days [2]: 100%

Compound: CN(Cc1cnc(Cl)nc1)C1=CC(=O)OC1 [Example 5, 4-[[(2-Chloropyrimidin-5-yl)methyl](methyl)amino]furan-2(5H)-one]
- Kill rate in % after 5 days [3, 8]: 100%

Compound: O=C1C=C(N(Cc2cnc(Cl)nc2)C2CC2)CO1 [Example 6, 4-[[(2-Chloropyrimidin-5-yl)methyl](cyclopropyl)amino]furan-2(5H)-one]
- Kill rate in % after 5 days [3, 9]: 100%

Compound: CC1OC(=O)C=C1N(C)Cc1cnc(Cl)c(Cl)c1 (centres unmarked) [Example 7, 4-[[(5,6-dichloropyridin-3-yl)methyl](methyl)amino]-5-methylfuran-2(5H)-one]
- Kill rate in % after 5 days [3, 10]: 90%

Compound: CN(Cc1cnc(Cl)c(Cl)c1)C1=C(Cl)C(=O)OC1 [Example 8, 3-Chloro-4-[[(5,6-dichloropyridin-3-yl)methyl](methyl)amino]furan-2(5H)-one]
- Kill rate in % after 5 days [3, 10]: 80%

Compound: CN(Cc1cnc(Cl)c(Cl)c1)C1=CC(=O)OC1 [Example 10, 4-[[(5,6-dichloropyridin-3-yl)methyl](methyl)amino]furan-2(5H)-one]
- Kill rate in % after 5 days [3, 8]: 100%
- Kill rate in % after 5 days ([3]; 20 g/ha, comparative table): 100%
- Kill rate in % after 7 days [4]: 100%

Compound: O=C1C=C(N(Cc2cnc(Cl)c(Cl)c2)C2CC2)CO1 [Example 11]
- Kill rate in % after 7 days (Boophilus microplus): 50%
- Kill rate in % after 5 days [3, 8]: 100%
- Kill rate in % after 5 days ([3]; 100 g/ha, comparative table): 100%
- Kill rate in % after 2 days [5]: 50%
- Kill rate in % after 7 days [4]: 100%

Compound: Cc1cc(CN(C2=CC(=O)OC2)C2CC2)cnc1Cl [Example 12]
- Kill rate in % after 6 days [6]: 50%

Compound: Cc1cc(CN(C)C2=CC(=O)OC2)cnc1Cl [Example 13]
- Kill rate in % after 5 days [7]: 70%

Compound: CN(Cc1cnc(Cl)c(Br)c1)C1=CC(=O)OC1 [Example 14]
- Kill rate in % after 5 days [3, 9]: 100%

Compound: O=C1C=C(N(Cc2cnc(Cl)c(Br)c2)C2CC2)CO1 [Example 15]
- Kill rate in % after 14 days (Meloidogyne incognita): 70%
- Kill rate in % after 6 days [6]: 40%

Compound: CCN(Cc1cnc(Cl)c(Cl)c1)C1=CC(=O)OC1 [Example 16]
- Kill rate in % after 5 days [3, 9]: 100%

Compound: O=C1C=C(N(Cc2cnc(Cl)c(Cl)c2)C2CC2)CC1 [Example 17]
- Kill rate in % after 5 days [3, 10]: 100%

Compound: CN(Cc1cnc(Cl)c(C#N)c1)C1=CC(=O)OC1 [Example 18]
- Kill rate in % after 5 days [3, 10]: 100%

Compound: CN(Cc1cnc(Cl)c(I)c1)C1=CC(=O)OC1 [Example 19]
- Kill rate in % after 5 days [3, 9]: 70%

Compound: CCN(Cc1cnc(Cl)c(C)c1)C1=CC(=O)OC1 [Example 20]
- Kill rate in % after 7 days (Boophilus microplus): 30%

Compound: O=C1C=C(N(Cc2cnc(Br)c(Br)c2)C2CC2)CO1 [Example 21]
- Kill rate in % after 5 days [3, 9]: 80%

Compound: CN(Cc1cnc(Br)c(Br)c1)C1=CC(=O)OC1 [Example 22]
- Kill rate in % after 5 days [2]: 100%

Compound: O=C1C=C(N(Cc2cnc(Br)c(Cl)c2)C2CC2)CO1 [Example 23]
- Kill rate in % after 7 days (Boophilus microplus): 30%

Compound: CN(Cc1cnc(Br)c(F)c1)C1=CC(=O)OC1 [Example 24]
- Kill rate in % after 5 days [3, 8]: 100%
- Kill rate in % after 5 days [2]: 100%

Compound: O=C1C=C(N(Cc2cnc(Br)c(F)c2)C2CC2)CO1 [Example 25]
- Kill rate in % after 5 days [3, 8]: 100%
- Kill rate in % after 2 days (Lucilia cuprina larvae): 100%

Compound: O=C1C=C(N(Cc2cnc(Cl)c(F)c2)C2CC2)CO1 [Example 26]
- Kill rate in % after 2 days [5]: 60%
